According to patent publication US11358965B2, “EGFR dimer disruptors and use of the same” (THE REGENTS OF THE UNIVERSITY OF MICHIGAN, priority 2018, dated 2022):

Tests used:
RKO cells = assay: Clonogenic IC50, RKO; assay type: cell-based; settings: Homo sapiens
[1] = target: T1, purified wild-type EGFR kinase domain (Homo sapiens, UniProt P00533); assay: Thermal stability assay of purified EGFR; assay type: binding; settings: 10 μM
T1 construct: WT-EGFR kinase domain (aa696-1022, active kinase); made in house; host or cells: SF9 insect cells
T1 sequence (P00533 696-1022): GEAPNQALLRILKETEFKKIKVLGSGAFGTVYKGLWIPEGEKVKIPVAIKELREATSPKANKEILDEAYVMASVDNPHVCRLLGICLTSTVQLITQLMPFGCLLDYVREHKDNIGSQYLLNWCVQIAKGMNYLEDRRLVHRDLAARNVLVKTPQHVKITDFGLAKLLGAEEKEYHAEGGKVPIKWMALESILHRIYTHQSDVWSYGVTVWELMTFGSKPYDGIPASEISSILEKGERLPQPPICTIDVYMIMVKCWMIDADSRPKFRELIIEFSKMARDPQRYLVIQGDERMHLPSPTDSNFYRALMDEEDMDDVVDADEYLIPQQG
Protocol: The samples were subjected to heat inactivation (20 to 44° C.) for 3 minutes. The soluble fraction was separated from aggregate by centrifugation at 13,000 RPM at 4° C. for 10 minutes. […] The EGFR band intensity as quantified by ImageJ software and plotted (see FIG. 5B). […] The soluble fraction of EGFR was quantified and plotted as described above (see FIG. 5C).
After cooling, the samples were centrifuged, and the soluble protein fraction was collected and resolved using immunoblotting with anti-EGFR antibodies (see FIG. 6A).

UMSCC74B [2] = assay: UMSCC74B head and neck tumor model, daily for one week; assay type: in vivo
Protocol: Efficacy testing of Compound 8C in UMSCC74B, an EGFR driven, aggressive tumor model of the head and neck. Tumor bearing mice were treated with 30 mg/kg dose daily (Monday-Friday) for one week. This dose was selected based on single dose PK profile (see FIG. 8A). This treatment was safe and produced significant tumor growth delay (see FIG. 10).
Nude mice bearing either UMSCC74B ([…]) were treated with (30 mg/kg, daily for one week) or with vehicle (5% DMSO in PBS). Each group had at least 5 mice. Tumor volume and body weight was recorded 3-4 times a week, and change in the average tumor volume with time is plotted. The average loss in body weight during treatment was less than 10%. Error bar represents standard error of the mean.
For the Compound 8C treatment group, day 0 is defined as the first day of treatment. In vehicle control mice, day 0 was defined as the day when the tumor volume was closest to the mean tumor volume in Compound 8C treatment groups on the day of treatment initiation. To assess whether tumor volume growth rates differed by treatment, mixed effect models were fit with random intercept terms at the mouse levels to account for correlated outcomes over time within a tumor and between 2 tumors within a mouse. Monotherapy elicited a significant reduction in tumor growth rate after one week of dosing (see FIG. 10).

786-0 = assay: NCI 60 cell line screen, 786-0; assay type: cell-based, human; settings: Renal Cancer
Protocol: (§1) The activity of Compound 8C was tested against 60 different human tumor cell lines at the National Cancer Institute, using the standard NCI 60 screening protocol.

[3] = test system: isogenic 6-Ba/F3 cell types (TKI sensitive and resistant); assay: Activity in isogenic Ba/F3 cell types
MCR5 cells = assay: Clonogenic IC50, MCR5; assay type: cell-based; settings: MCR5, MCR5
UMCC92 cells = assay: Clonogenic IC50, UMCC92; assay type: cell-based
EGFR = assay: EGF-induced EGFR dimerization and EGFR degradation in PC9-AZR cells; assay type: cell-based; settings: 1 μM, 1 hour, then EGF 30 ng/ml
Protocol: It was determined if the response to Compound 8C correlates with inhibition of EGF-induced dimerization and degradation of EGFR. For this, PC9-AZR cells were treated for 1 hour with 1 μM Compound 8C and an additional 30 minutes with EGF (30 ng/ml) and 30 minutes with disuccinimidyl suberate (DSS, 150 μM) to cross-link interacting proteins. Lysates were prepared and immunoblotted with anti-EGFR antibodies.

[4] = test system: Ba/F3-AZR cells (L858R+T790M+C797S-EGFR); assay: Osimertinib resistant Ba/F3-AZR ascites tumor model; assay type: in vivo, nude mice; settings: single 30 mg/kg dose (Compound 8C i.p., osimertinib oral), 18 days after tumor cells
Microsomal half-life = assay type: in vitro ADME; settings: microsomes
HCC827-AZR = assay: Clonogenic survival assay, HCC827-AZR; assay type: cell-based; settings: read-out: IC50 and IC90
cells [5] = assay: Clonogenic cellular assay; assay type: cell-based
UACC-62 = assay: NCI 60 cell line screen, UACC-62; assay type: cell-based, human; settings: Melanoma
Protocol: as §1

LOX IMVI = assay: NCI 60 cell line screen, LOX IMVI; assay type: cell-based, human; settings: Melanoma
Protocol: as §1

PC9-AZR = assay: Clonogenic survival assay, PC9-AZR; assay type: cell-based; settings: read-out: IC50 and IC90
[6] = Stability in mouse liver microsomes; assay type: in vitro ADME
Preliminary safety test = assay type: in vivo, C57BL6 mice; settings: daily dose of 30 mg/kg for one week
Protocol: A preliminary test on the safety of a daily dose of 30 mg/kg for one week was performed using C57BL6 mice. The overall health and weight of a group of 6 mice was monitored during treatment. A modest loss of 3.5±2.4% body weight after one week of treatment was observed, but mice fully recovered the weight 2-days after treatment cessation.

HCT-116 = assay: NCI 60 cell line screen, HCT-116; assay type: cell-based, human; settings: Colon Cancer
Protocol: as §1

SK-MEL-5 = assay: NCI 60 cell line screen, SK-MEL-5; assay type: cell-based, human; settings: Melanoma
Protocol: as §1

UMSCC74B [7] = assay: UMSCC74B xenografts, oral gavage twice weekly; assay type: in vivo, mouse; settings: 30 mg/kg, vs untreated and cetuximab controls
Protocol: Mouse xenographs of UMSCC74B, a head and neck tumor cell line, were treated with Compound 8C via oral gavage (30 mg/kg body weight, twice weekly).

[8] = Stability in human liver microsomes; assay type: in vitro ADME
cells [9] = assay: Cell Titer Blue % cell viable (24 hrs); assay type: cell-based; settings: 24 h, Conc 3.75 μM
Method in brief: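 Cell viability was measured with CellTiter-Blue® reagent according to the manufacturer's protocol. Cells were seeded at 10,000 per well in 96-well plates, in quadruplicate, and treated with compound one day later. Viable cells reduce the redox dye resazurin to fluorescent resorufin. Fluorescence was read at 590 nm emission after excitation at 560 nm and compared with vehicle-treated controls.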

MALME-3M = assay: NCI 60 cell line screen, MALME-3M; assay type: cell-based, human; settings: Melanoma
Protocol: as §1

## CN1CCC2(CC1)N=C(SCC(=O)Nc1cnc3ccccc3c1)C(c1ccc(Br)cc1)=N2 [Compound 8C, 2-((3-(4-bromophenyl)-8-methyl-1,4,8-triazaspiro[4.5]deca-1,3-dien-2-yl)thio)-N-(quinolin-3-yl)acetamide]
RKO cells
  IC50: 1.6 µM
[1]
  effect on melting curve / melting temperature of purified WT-EGFR: shifts the melting curve
UMSCC74B [2]; 30 mg/kg dose daily (Monday-Friday) for one week
  safety of treatment: safe
UMSCC74B [2]; 30 mg/kg, daily for one week
  average loss in body weight during treatment: less than 10%
UMSCC74B [2]; 30 mg/kg, daily for one week, vs time-matched control (p=0.013) and overall control (p<0.001)
  tumor growth rates: significantly lower
786-0
  Percent Growth: −81.7%
[3]
  activity in each Ba/F3 cell line: active in the nanomolar range
MCR5 cells
  IC50: 18.6 µM
UMCC92 cells
  IC50: 0.2 µM
EGFR
  EGFR dimerization and degradation of EGFR: can inhibit EGFR dimerization and induce degradation of EGFR
[4]
  survival: prolonged life
Microsomal half-life
  half-life: > 46 min
HCC827-AZR
  IC50: 1500 to 4000 nM
Cells [5]
  IC50 in the clonogenic cellular assay: sub-micromolar
UACC-62
  Percent Growth: −78.9%
LOX IMVI
  Percent Growth: −78.5%
PC9-AZR
  IC50: 1500 to 4000 nM
[6]
  stability compared to pre lead (C95): approximately 20 times
Preliminary safety test
  loss of body weight after one week of treatment: 3.5±2.4%
  time to full weight recovery after treatment cessation: 2 days
HCT-116
  Percent Growth: −90.7%
SK-MEL-5
  Percent Growth: −96.2%
UMSCC74B [7]
  tumor volume: significantly reduced tumor volume
[8]
  stability compared to pre lead (C95): approximately 20 times
Cells [9]
  viability at 3.75 µM: 68%
MALME-3M
  Percent Growth: −75.5%
